{"source": "patent US10730848B2", "about": "(priority 2013, dated 2020)", "key": {"[1]": {"system": "anthrax lethal toxin (LT)", "assay": "cells", "format": "cell-based, murine", "details": "for IC50: Mus musculus"}, "[2]": {"system": "anthrax lethal toxin (LT)", "format": "cell-based, mice"}, "MEK2": {"system": "MEK2", "format": "cell-based, murine"}, "PA+LFnDTA": {"system": "PA+LFnDTA", "format": "cell-based"}, "caspase-1": {"system": "caspase-1", "format": "cell-based, mice"}, "PA": {"system": "PA", "format": "cell-based"}, "Diphtheria toxin": {"system": "Diphtheria toxin", "format": "cell-based"}, "[3]": {"system": "exotoxin A from Pseudomonas aeruginosa (ExoA)", "format": "cell-based"}, "[4]": {"system": "VSV-pseudotyped lentivirus", "format": "cell-based"}, "[5]": {"system": "Nipah-pseudotyped lentivirus", "format": "cell-based"}, "[6]": {"system": "GFP-expressing Armstrong variant of LCMV", "format": "cell-based"}, "influenza A/WSN/33 virus": {"system": "influenza A/WSN/33 virus", "format": "cell-based"}, "acidic compartments": {"system": "acidic compartments", "format": "cell-based"}, "EGFR": {"system": "EGFR", "format": "cell-based", "details": "15-30 min"}, "EGF": {"system": "EGF", "format": "cell-based"}, "transferrin (Tf)": {"system": "transferrin (Tf)", "format": "cell-based"}, "THP-1 cells": {"system": "THP-1 cells", "format": "cell-based, human"}, "F. tularensis LVS": {"system": "F. tularensis LVS", "format": "cell-based"}, "LT": {"system": "LT", "details": "rat, in vivo"}}, "note": "Entries after “also recorded” stand apart in the source; their conditions may differ. Where two headings read alike, the source gives them in different places.", "data": [{"compound": "Cc1cccc(C)c1NC(=O)N/N=C/c1ccc(Br)cc1", "note": "[Compound 1, N^1-(4-BROMOBENZYLIDENE)-N^4-(2,6-DIMETHYLPHENYL)SEMICARBAZONE]", "values": [{"measurement": "rescued viability, of unintoxicated controls", "setting": "[1]", "result": "up to 100%"}, {"measurement": "time after LT at which addition still completely protects cells from killing", "setting": "[1]", "result": "up to 15 minutes"}, {"measurement": "IC50", "setting": "[1]; RAW264.7", "result": 1.4, "unit": "µM"}, {"measurement": "IC50", "setting": "[1]; RAW264.7, read-out: IC50 (In uM)", "result": 1.27, "unit": "µM"}, {"measurement": "IC50", "setting": "[1]; RAW264.7, read-out: IC50, inhibition of LT-induced cell death", "result": 1.4, "unit": "µM"}, {"measurement": "IC50", "setting": "[1]; RAW264.7, read-out: IC50 in cell-based LT intoxication experiments", "result": 1.4, "unit": "µM"}, {"measurement": "protection of BMDMs from killing by LT", "setting": "[2]", "result": "protected"}, {"measurement": "LT-mediated cleavage of MEK2", "setting": "MEK2", "result": "inhibits LT-mediated cleavage of MEK-2; also recorded: completely abrogated"}, {"measurement": "protection from PA+LFnDTA", "setting": "PA+LFnDTA", "result": "Protects Cells from PA+LFnDTA; also recorded: resistant"}, {"measurement": "LT-mediated caspase-1 activation", "setting": "caspase-1", "result": "inhibits LT-mediated caspase-1 activation; also recorded: active caspase-1 was not detected"}, {"measurement": "binding of PA83 to cells or proteolytic processing to PA63", "setting": "PA", "result": "did not block"}, {"measurement": "protection of HeLa cells from DT", "setting": "Diphtheria toxin", "result": "effectively protected"}, {"measurement": "protection of HeLa cells from ExoA", "setting": "[3]", "result": "effectively protected"}, {"measurement": "infection by VSV-G pseudotyped virus", "setting": "[4]", "result": "Inhibits Infection by Low pH-dependent VSV-pseudotyped lentivirus; also recorded: effectively inhibited; also recorded: neutralized"}, {"measurement": "infection by Nipah-pseudotyped lentivirus", "setting": "[5]", "result": "Does Not Inhibit Infection; also recorded: did not inhibit"}, {"measurement": "acute LCMV infection", "setting": "[6]", "result": "Reduces Acute LCMV Infection; also recorded: decreased the total number of cells infected and the amount of virus being produced"}, {"measurement": "influenza virus infection (reporter activation)", "setting": "influenza A/WSN/33 virus", "result": "Inhibits Entry of Influenza virus; also recorded: completely inhibited infection; also recorded: partial protection"}, {"measurement": "cell-associated Lysotracker Red fluorescence (neutralization of acidic compartments)", "setting": "acidic compartments", "result": "Does Not Neutralize Acidic Compartments; also recorded: did not reduce"}, {"measurement": "EGFR degradation at early times post EGF stimulation", "setting": "EGFR", "result": "Slows EGFR-Degradation at 15 Minutes; also recorded: significantly less EGFR degraded at 30 min"}, {"measurement": "EGF retention in EEA1-positive endosomes", "setting": "EGF", "result": "Results in EGF Retention in EEA1+ Endosomes; also recorded: retained in enlarged endosomes"}, {"measurement": "stabilization of EGF", "setting": "EGF", "result": "stabilized EGF up to 60 min"}, {"measurement": "transferrin recycling to the cell surface", "setting": "transferrin (Tf)", "result": "Does Not Inhibit Transferrin Receptor Recycling to the Plasma Membrane; also recorded: had no affect"}, {"measurement": "trafficking of Texas-red dextran to phagosomes", "setting": "THP-1 cells", "result": "Does Not Block Texas Red-Dextran Trafficking to Phagosomes; also recorded: Neither EGA nor bafilomycin A1 inhibited"}, {"measurement": "phagocytic uptake of F. tularensis LVS", "setting": "F. tularensis LVS", "result": "Does Not Block Phagocytic Uptake of F. tularensis; also recorded: Neither EGA nor bafilomycin A1 blocked"}, {"measurement": "HdCDT localization in EEA-1-positive vesicles", "setting": "HdCDT", "result": "Traps HdCDT in Enlarged EEA-1-Positive Vesicles"}, {"measurement": "cytotoxicity induced by Hd-CDT", "setting": "HdCDT", "result": "Inhibits cytotoxicity induced by Hd-CDT"}, {"measurement": "intoxication (cell cycle arrest) by EcCDT", "setting": "EcCDT", "result": "did not inhibit intoxication"}, {"measurement": "tolerability", "setting": "LT", "result": "well tolerated in rats"}]}]}
